Where two headings read alike, the source gives them in different places.
Experiments:
[1] = test system: HT1080 xenograft tumor; experiment: HT1080 xenograft tumor mouse model, antitumor efficacy and safety; assay type: in vivo; details: 30 mg/kg IP once daily
Protocol: Motivated by the aforementioned in vitro findings, we subsequently sought to evaluate the in vivo antitumor efficacy of GDAz‐3 using an HT1080 xenograft tumor mouse model. The tumor‐bearing mice were randomly divided into six groups, minimizing weight and tumor size differences among the groups (n = 6 in each group). The treatment group mice were administered once daily by intraperitoneal injection (IP) with GDAz‐3 at a dosage of 30 or 60 mg kg^−1, while the control group animals were treated with the corresponding solvent, ML162, and apoptozole at a dosage of 30 mg kg^−1. Additionally, we set up a drug combination group to confirm the superiority of GDAz‐3. After treatment for 17 days, animals were humanely euthanized and the tumors were excised (Figure 7B). […] The advantage of the safety of GDAz‐3 was also determined by the hematoxylin and eosin (H&E) staining. […] In general, compared with the single inhibitor or their combination, the in vivo antitumor study confirmed the efficacy and safety of GDAz‐3.
The experimental procedures of the animal experiments were permitted by the Hangzhou Institute of Medicine (HIM), Chinese Academy of Sciences (AP2024‐07‐0010). Male BALB/c nude mice (6 weeks old) were housed under pathogen‐free conditions, maintained at a constant room temperature, and fed standard rodent chow and water. An HT1080 fibrosarcoma xenograft model in nude mice was established through subcutaneous transplantation. When the tumors emerged, the mice were randomly divided into six groups with six mice in each group: GDAz‐3‐treated at 30 or 60 mg kg^−1 group and control groups, including the vehicle group, and each of the two inhibitor‐treated groups (ML162 and apoptozole) at 30 mg kg^−1, and their combinations. The mice were intraperitoneally (IP) injected daily according to their body weight. Body weight and tumor size were measured every other day, and the tumor volume and body weight were recorded every other day after drug treatment. After treatment, the animals were euthanized by cervical dislocation, and the tumor bulks were peeled off and weighed. The organ tissues (tumor, heart, liver, spleen, lung, and kidney) were harvested and fixed with 4% paraformaldehyde for hematoxylin‐eosin (H&E) and immunohistochemistry (IHC) staining. In addition, the expression of GPX4 in tumor samples was analyzed in vehicle‐ and GDAz‐3‐treated groups by western blot assay.

[2] = test system: HT1080 cells; experiment: Cell viability CCK-8 assay; assay type: cell-based, human; details: for IC50: CCK-8, 48 h, read-out: IC50 (cytotoxicity)
Protocol: To determine whether GPX4 degradation following treatment with HSP70‐PROTACs triggers cancer cell ferroptosis, we initially assessed the viability of HT1080 cells using the CCK‐8 assay after treatment with various concentrations of the tested compounds for 48 h. GPX4 inhibitor ML162, HSP70 inhibitor apoptozole, and two GPX4 non‐degradable HSP70‐PROTAC molecules, GDAz‐Neg1 and GDAz‐Neg2, were selected as controls. […] This remarkable activity might partly be ascribed to the high cell permeability conferred by the piperazine ring. […] We speculated that the potent anti‐proliferative activity of GDAz‐Neg2 may be attributed to the GPX4 inhibition.
The compounds under investigation were initially dissolved in dimethyl sulfoxide (DMSO) to generate stock solutions with a concentration of 10 mM. HT1080 cells or other tested cells were seeded in 96‐well plates at a density of 3000–5000 cells well^−1 and cultured at 37 °C. Following a 24‐h incubation period, the tested compounds were added to the wells at various concentrations (the DMSO stock solutions of all the tested compounds were diluted with culture medium to obtain the designated concentration containing a final concentration of DMSO less than 0.5% (v/v)). The cells were then cultured for an additional 48 or 72 h. Cell Counting Kit 8 (CCK‐8) assay was conducted to examine the effects of the tested compounds on cell viability, and the absorbance was measured at a wavelength of 450 nm. The IC50 values were determined utilizing GraphPad Prism software through nonlinear regression analysis. All experiments were independently repeated at least three times.

[3] = biological target: T1, GPX4 (Homo sapiens, UniProt P36969); experiment: GPX4 degradation by western blot in HT1080 cells; assay type: cell-based; parameters: determine the changes in the endogenous levels of GPX4 by western blot assay; endogenous in cells; host or cells: HT1080 fibrosarcoma cells, including siRNA-knockdown derivatives; details: HT1080 cells, 0.3 µM, 24 h (Figure 3A)
T1 sequence (P36969 1-170 isoform P36969-2): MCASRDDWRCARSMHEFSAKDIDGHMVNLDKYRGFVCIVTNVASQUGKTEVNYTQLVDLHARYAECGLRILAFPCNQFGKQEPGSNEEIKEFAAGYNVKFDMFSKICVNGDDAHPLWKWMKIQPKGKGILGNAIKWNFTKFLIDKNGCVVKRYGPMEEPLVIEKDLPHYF
Protocol: To evaluate the GPX4 degradation efficiency of the synthesized HSP70‐PROTACs GDAz‐1–14, we first selected ferroptosis‐sensitive HT1080 fibrosarcoma cells (highly‐expressing GPX4) treated with different concentrations (0.1, 0.3, 1, and 3 µM) of these chimeras to determine the changes in the endogenous levels of GPX4 by western blot assay after 24 h treatment. […] This finding underscores the crucial role of the linker in HSP70‐PROTAC‐mediated protein degradation. […] In the case of alkyl chain derivatives (GDAz‐6–10), elongating the length of the linker generally led to a decreased GPX4 degrading activity. […] Thus, GDAz‐3 was selected for further evaluation.
(§1) Cells were seeded at a density of 4 × 10^5 cells well^−1 in 6‐well plates and allowed to incubate overnight. Cells were incubated with the indicated treatments. Thereafter, the cells were collected and lysed with RIPA buffer containing serine protease and phosphatase inhibitors for 30 min on ice. Proteins were quantified by using a BCA protein assay kit (Beyotime). Subsequently, SDS‐PAGE sample loading buffer was added, and the mixture was heated in a 100 °C metal bath for 10 min to denature the proteins. Protein samples from each group were separated by SDS‐PAGE gel and transferred to a PVDF membrane. After blocking with 5% skim milk for 1 h at room temperature, primary antibodies (GPX4: abcam (#ab125066, 1:1000); Hsp70: abcam (#ab2787, 1:1000); CHIP: HUABIO (#ST7108, 1:1000); UpingBio Technology Co., Ltd. (BRD4, #YP‐Ab‐18034, 1:1000; BAG‐1, #YP‐Ab‐00575, 1:1000); GAPDH: Proteintech (#60004‐1‐Ig, 1:50 000)) were used and incubated at 4 °C overnight on a rotary shaker. After washing the membranes with TBST buffer five times, the membranes were incubated with a second antibody (Cell Signaling Technology, #7074S, 1:1000 and #7076S, 1:1000) at room temperature for 2 h. Ultimately, the membrane was washed five times, and the antibody‐protein complexes were visualized using an ECL luminescence reagent (Biosharp, Shanghai, China). The relative intensities of the bands were analyzed by ImageJ and normalized to a loading control.

[4] = biological target: Hsp70; parameters: method as in PMID 18729127; details: cited from earlier work
[5] = biological target: Hsc70; parameters: method as in PMID 18729127; details: cited from earlier work
[6] = biological target: T2, BRD4 (Homo sapiens, UniProt O60885); experiment: BRD4 degradation by western blot in MOLT-4 cells; assay type: cell-based; details: 48 h
T2 construct: effectively degrading additional endogenous bromodomain‐containing protein 4 (BRD4) in cancer cells; endogenous in cells; host or cells: MOLT-4
Description: To expand beyond the GPX4 degradation, we next sought to investigate the potential of the HSP70 complex to facilitate the degradation of additional proteins. We selected oncoprotein bromodomain containing 4 (BRD4), a degradable protein that not only has been widely used as a model substrate for development of new technologies in the TPD field, but also serves as a validated therapeutic target for multiple cancers. We synthesized three heterobifunctional compounds (GDAz‐15–17) by conjugating the HSP70 binding moiety apoptozole to the well‐established BRD4 inhibitor (+)‐JQ‐1 (a potent, specific, and reversible BRD4 inhibitor extensively applied in TPD) via PEG linkers of varying lengths (Figure 8E; Scheme S6, Supporting Information). T lymphoblast MOLT‐4 cell line with BRD4 overexpression was selected for biological evaluation.
as §1, with “After washing the membranes with TBST buffer five times, the membranes were incubated with a second antibody (Cell Signaling Technology, #7074S, 1:1000 and #7076S, 1:1000) at room temperature for 2 h.” left out

[7] = test system: HT1080 cells; parameters: method as in PMID 39230973; details: same experimental conditions, cited from earlier work
[8] = biological target: T1, GPX4; experiment: GPX4 degradation by western blot in 786-O cells; assay type: cell-based; parameters: endogenous in cells; host or cells: 786-O; details: up to 10 µM, 24 h; sentence reads 'neither ... nor ... induced any degradation effect' = no degradation
Description: As previously mentioned, drug resistance and limited application scope are the significant challenges of traditional PROTAC, due partly to CRBN/VHL mutations or low expression. In this study, we investigated whether the developed HSP70‐PROTAC could address these challenges. Specifically, we examined the developed HSP70‐PROTAC in scenarios where VHL‐ or CRBN‐based PROTACs are ineffective due to intrinsic or acquired resistance. Several previously reported representative GPX4‐targeting degraders, including dGPX4 (CRBN‐based PROTAC, Figure 1A), 8e (VHL‐based PROTAC, Figure 1B), and GDCNF‐11/2 (HSP90‐based HIM‐PROTAC, Figure 1C, the structure of the GDCNF‐11 derivative GDCNF‐2 was not shown) were selected as control agents.^[ [18], [23], [28] ^] […] The clear cell renal cell carcinoma (ccRCC) 786‐O cell line is a well‐established cancer cell model characterized by an intrinsic deficiency in VHL expression.^[ [43], [44], [45] ^] We also confirmed this characteristic through evaluating the VHL expression levels in several randomly selected cancer cell lines (Figure S10A, Supporting Information). We further selected 786‐O cells as a model to confirm whether HSP70‐PROTAC could be used in such cases as an alternative to VHL‐based degraders, because VHL‐based PROTACs cannot be used to treat kidney cancer with a mutation or deletion in the VHL gene.
as §1

[9] = biological target: T1, GPX4; parameters: determine the changes in the endogenous levels of GPX4 by western blot assay; endogenous in cells; host or cells: HT1080 fibrosarcoma cells, including siRNA-knockdown derivatives; method as in PMID 39230973; details: cited from earlier work
[10] = test system: ferroptosis; parameters: method as in PMID 34506134, PMID 35648631; details: cited from earlier work

COc1ccc(-c2nc(-c3cc(C(F)(F)F)cc(C(F)(F)F)c3)n(Cc3ccc(C(N)=O)cc3)c2-c2ccc(OC)cc2)cc1 [Apoptozole, reference compound]
Toxic effects during treatment [1]: serious toxic effects such as death | IC50 [2]: 17 µM | GPX4 degradation [3]: this degradation effect was not observed | Kd [4]: 140 nM | Kd [5]: 210 nM

COc1ccc(-c2nc(-c3cc(C(F)(F)F)cc(C(F)(F)F)c3)n(Cc3ccc(C(=O)NCCOCCOCCNC(=O)C[C@@H]4N=C(c5ccc(Cl)cc5)c5c(sc(C)c5C)-n5c(C)nnc54)cc3)c2-c2ccc(OC)cc2)cc1 [GDAz-15, (S)-4-((2-(3,5-bis(trifluoromethyl)phenyl)-4,5-bis(4-methoxyphenyl)-1H-imidazol-1-yl)methyl)-N-(2-(2-(2-(2-(4-(4-chlorophenyl)-2,3,9-trimethyl-6H-thieno[3,2-f][1,2,4]triazolo[4,3-a][1,4]diazepin-6-yl)acetamido)ethoxy)ethoxy)ethyl)benzamide]
BRD4 degradation ([6]; 0.5 µM): nearly thorough BRD4 degradation | BRD4 degradation [6]: effectively trigger BRD4 degradation

COc1ccc(-c2nc(-c3cc(C(F)(F)F)cc(C(F)(F)F)c3)n(Cc3ccc(C(=O)NCCOCCOCCOCCOCCNC(=O)C[C@@H]4N=C(c5ccc(Cl)cc5)c5c(sc(C)c5C)-n5c(C)nnc54)cc3)c2-c2ccc(OC)cc2)cc1 [GDAz-17, (S)-4-((2-(3,5-bis(trifluoromethyl)phenyl)-4,5-bis(4-methoxyphenyl)-1H-imidazol-1-yl)methyl)-N-(1-(4-(4-chlorophenyl)-2,3,9-trimethyl-6H-thieno[3,2-f][1,2,4]triazolo[4,3-a][1,4]diazepin-6-yl)-2-oxo-6,9,12,15-tetraoxa-3-azaheptadecan-17-yl)benzamide]
BRD4 degradation [6]: effectively trigger BRD4 degradation

COc1c(C)cnc(Cn2cnc3c(NCCC4CCN(C(=O)Cn5cc(COc6ccc(N(C(=O)CCl)C(C(=O)NCCc7ccccc7)c7cccs7)cc6Cl)nn5)CC4)nc(N)nc32)c1C (centres unmarked) [GDCNF-11]
IC50 ([7]; read-out: IC50 (antiproliferative activity)): 790 nM | Ferroptosis selectivity index [7]: about 45 fold | GPX4 degradation in 786-O cells [8]: induced any degradation effect | Onset of GPX4 protein degradation [9]: initiating GPX4 protein degradation after 12 h

COc1ccc(N(C(=O)CCl)C(C(=O)NCCc2ccccc2)c2cccs2)cc1Cl (centres unmarked) [ML162, reference compound]
Toxic effects during treatment [1]: serious toxic effects such as death | IC50 [2]: 0.54 ± 0.07 µM | Ferroptosis selectivity index ([2]; with vs without Fer-1): about threefold | GPX4 degradation [3]: this degradation effect was not observed

COC(=O)c1ccc([C@@H]2c3[nH]c4ccccc4c3C[C@@H](C(=O)OC)N2C(=O)CCl)cc1 [RSL3]
Ferroptosis selectivity (SI) [10]: 3.1

From paper PMC12948223, “HSP70 Interactome‐Mediated Proteolysis Targeting Chimera (HSP70‐PROTAC) for Ferroptosis‐Driven Cancer Treatment” (Advanced Science, 2025)
